A value given as a limit tells only on which side of the number the result lay.

The subject of experiment [1] is human T cells. The experiment is described as follows: ConA-induced T cell expansion from human PBMCs. Type of experiment: cell-based. The settings on record: 168 h, read-out: EC50 T cells.
Experiment [2] has as its system A2780 cells. In words: A2780 cell proliferation screen. Type of experiment: cell-based. The settings on record: Homo sapiens, A2780, 72 h, read-out: EC50 A2780.
Experiment [3] concerns Brpkp110 tumors. The settings on record: trametinib 1.0 mg/kg oral gavage days 3-13, single intervention.
The test system of experiment [4] is MEK. In words: Brpkp110 cells MEK signaling, Western blot. The conditions noted are these: 8 nM or 200 nM trametinib, 18 hr. The class given is cell-based, mouse. In general terms: A western blot detects proteins with antibodies after separation by electrophoresis.
The test system of experiment [5] is human T cells. The experiment is described as follows: Human T cell proliferation with aAPCs. The class given is cell-based. The settings on record: human PBMCs, 7 days.
The test system of experiment [6] is human T cells. In words: Cytokine rescue of human T cell proliferation from trametinib. The conditions noted are these: aAPCs, 200 nM trametinib, 7 days; IL-2 20 U/ml, IL-7 2 ng/ml, IL-15 10 ng/ml, IL-21 100 ng/ml, IL-27 50 ng/ml, ALT-803 35.7 ng/ml. The class given is cell-based.
Experiment [7] relates to ERK1/2 phosphorylation. In words: TCR ligation of human CD8 T cells, Western blot p-ERK1/2. The conditions noted are these: within 10 minutes post-activation, trametinib 8 nM. The class given is cell-based.

What is called EC50 is the concentration needed to bring the measured effect to its halfway point. With `CN(C)CC[C@H](CSc1ccccc1)Nc1ccc(S(=O)(=O)NC(=O)c2ccc(N3CCN(Cc4ccccc4-c4ccc(Cl)cc4)CC3)cc2)cc1[N+](=O)[O-]` [ABT-737], in experiment [1], the EC50 amounted to 61 nM.

Take `CN1CCN(CCOc2cc(OC3CCOCC3)c3c(Nc4c(Cl)ccc5c4OCO5)ncnc3c2)CC1` [AZD0530 (saracatinib), saracatinib]: in experiment [2], the 50% effective concentration (EC50) is over 25000 nM.

Consider `CCN(CCCOc1ccc2c(Nc3cc(CC(=O)Nc4cccc(F)c4)n[nH]3)ncnc2c1)CCOP(=O)(O)O` [AZD1152 (barasertib), barasertib], for which the half-maximal effective concentration (EC50) in experiment [2] was over 25000 nM.

For `Cn1cnc2c(F)c(Nc3ccc(Br)cc3Cl)c(C(=O)NOCCO)cc21` [AZD6244 (selumetinib), selumetinib], the EC50 in experiment [2] is over 25000 nM.

Take `Cc1cc([C@@H](C)Nc2ccccc2C(=O)O)c2nc(N3CCOCC3)cc(=O)n2c1` [AZD6482]: in experiment [2], the EC50 is over 25000 nM.

As for `COc1ccc(-c2ccc3c(N4CCOC[C@@H]4C)nc(N4CCOC[C@@H]4C)nc3n2)cc1CO` [AZD8055], the EC50 turned out to be 13.6 nM in experiment [1] and 78.3 nM in experiment [2].

In the case of `Cn1c(=O)n(-c2ccc(C(C)(C)C#N)cc2)c2c3cc(-c4cnc5ccccc5c4)ccc3ncc21` [BEZ235 (dactolisib), dactolisib], the concentration for a half-maximal effect (EC50) in experiment [1] turned out to be 2.4 nM; in experiment [2], 21 nM.

Consider `CC(=O)Nc1cccc(-n2c(=O)n(C3CC3)c(=O)c3c(Nc4ccc(I)cc4F)n(C)c(=O)c(C)c32)c1` [GSK1120212 (trametinib), trametinib], for which the “Growth of Brpkp110 tumors” value in experiment [3] is listed as “significantly reduced the growth”. In addition, the “Signaling through MEK in Brpkp110 cells” value in experiment [4] was “can be inhibited”. For the same molecule, in experiment [2], the half-maximal effective concentration (EC50) was over 25000 nM. Further, in experiment [5], the “Proliferation of human T cells in response to aAPC coated with agonistic CD3 and CD28 antibodies” value is reported as “Comparable results”.

For `COc1ncc(-c2ccc3nccc(-c4ccnnc4)c3c2)cc1NS(=O)(=O)c1ccc(F)cc1F` [GSK2126458 (omipalisib), omipalisib], the results for the EC50 in experiment [1] and in experiment [2] were 0.237 nM and 155 nM, respectively.

On to `Cn1ncc(Cl)c1-c1cc(C(=O)N[C@H](CN)Cc2ccc(F)c(F)c2)oc1Cl` [GSK2141795], for which the values for the 50% effective concentration (EC50) in experiment [1] and in experiment [2] were 96 nM and 2350 nM, respectively.

In the case of `Cc1[nH]c2ccccc2c1CCNCc1ccc(/C=C/C(=O)NO)cc1` [LBH589 (panobinostat), panobinostat], the EC50 in experiment [1] was 25 nM.

For the molecule `CN(C)C(=O)c1cc2cnc(Nc3ccc(N4CCNCC4)cn3)nc2n1C1CCCC1` [LEE011], the EC50 in experiment [2] was over 25000 nM.

For the molecule `COc1cc(Nc2ncc3c(n2)-c2ccc(Cl)cc2C(c2c(F)cccc2OC)=NC3)ccc1C(=O)O` [MLN8237 (alisertib), alisertib], in experiment [2], the concentration giving a half-maximal response (EC50) is over 25000 nM.

Regarding `C[C@]1(O)C[C@@H](c2nc(-c3ccc4ccc(-c5ccccc5)nc4c3)c3c(N)nccn32)C1` [OSI-906 (linsitinib), linsitinib], the 50% effective concentration (EC50) in experiment [1] and in experiment [2] was over 25000 nM each time.

Consider `CC(=O)c1c(C)c2cnc(Nc3ccc(N4CCNCC4)cn3)nc2n(C2CCCC2)c1=O` [PD0332991 (palbociclib), palbociclib], for which, in experiment [1], the EC50 is 110 nM.

With `CCCS(=O)(=O)Nc1ccc(F)c(C(=O)c2c[nH]c3ncc(-c4ccc(Cl)cc4)cc23)c1F` [PLX4032 (vemurafenib), vemurafenib], the concentration giving a half-maximal response (EC50) in experiment [2] is over 25000 nM.

Take “IL-15: Recombinant human IL-15 (Novoprotein)”: in experiment [6], the “Rescue of human T cell proliferation in the presence of trametinib” value (from here on “Rescue of human T cell proliferation”) is listed as “able to individually rescue the proliferation”. The “Rescue of TCR-induced ERK1/2 phosphorylation from MEK inhibition” value in experiment [7] is “can rescue”.

Turning to IL-21: human IL-21 cytokine, the “Rescue of human T cell proliferation” value in experiment [6] was “no significant rescuing effect”.

B1: IL-7: mouse IL-7 (Peprotech) (protein, UniProt P10168 26-154, looked up)
Interleukin-7: ECHIKDKEGKAYESVLMISIDELDKMTGTDSNCPNNEPNFFRKHVCDDTKEAAFLNRAARKLKQFLKMNISEEFNVHLLTVSQGTQTLVNCTSKEEKNVKEQKKNDACFLKRLLREIKTCWNKILKGSI
Regarding B1, in experiment [6], the “Rescue of human T cell proliferation” value is listed as “able to individually rescue the proliferation”.

B2: IL-27: human IL-27 (eBioscience) (protein, UniProt Q8NEV9 29-243; Q14213 21-229, looked up)
Interleukin-27 subunit alpha: FPRPPGRPQLSLQELRREFTVSLHLARKLLSEVRGQAHRFAESHLPGVNLYLLPLGEQLPDVSLTFQAWRRLSDPERLCFISTTLQPFHALLGGLGTQGRWTNMERMQLWAMRLDLRDLQRHLRFQVLAAGFNLPEEEEEEEEEEEEERKGLLPGALGSALQGPAQVSWPQLLSTYRLLHSLELVLSRAVRELLLLSKAGHSVWPLGFPTLSPQP
Interleukin-27 subunit beta: RKGPPAALTLPRVQCRASRYPIAVDCSWTLPPAPNSTSPVSFIATYRLGMAARGHSWPCLQQTPTSTSCTITDVQLFSMAPYVLNVTAVHPWGSSSSFVPFITEHIIKPDPPEGVRLSPLAERQLQVQWEPPGSWPFPEIFSLKYWIRYKRQGAARFHRVGPIEATSFILRAVRPRARYYVQVAAQDLTDYGELSDWSLPATATMSLGK
As for B2, in experiment [6], the “Rescue of human T cell proliferation” value was “no significant rescuing effect”.

For the origin of these results see publication PMC4873368 (Cancer research, 2016).
